Literature values as cited in article PMC10650486, “Fluoroquinolone-Based Organic Salts (GUMBOS) with Antibacterial Potential” (International Journal of Molecular Sciences, 2023).

What was measured:
[1] = cited from earlier work
[2] = system: E. coli; set-up: method as in earlier work; details: cited from earlier work
[3] = system: S. aureus; set-up: method as in earlier work; details: cited from earlier work
[4] = system: S. aureus; details: cited from earlier work

In the case of `COc1c(N2C[C@@H]3CCCN[C@@H]3C2)c(F)cc2c(=O)c(C(=O)O)cn(C3CC3)c12` [[Mox], moxifloxacin], the logKO/W [1] is given as −0.28, the “epidemiologic cutoff value (ECOFF)” value [2] is given as 0.25 mg·L^−1 and the “epidemiologic cutoff value (ECOFF)” value [3] is given as 0.25 mg·L^−1. The MIC [4] was 0.032 to 2 µg/mL.
